Some test systems named below: KM12 colon; IGROV1 ovarian; SK-MEL-28 melanoma; OVCAR-5 ovarian; PC-3 prostate; SF-539 CNS; A549 NSCLC; SK-OV-3 ovarian; UACC-257 melanoma; HCT-116 colon; ACHN renal; NCI-H522 lung; HS 578T breast; MALME-3M melanoma; MOLT-4 leukemia; HOP-92 NSCLC.
Common to all, as to test: growth of human tumour cells (NCI), 48 h

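Step 1: Grow cells in 96-well plates. Step 2: Expose to compound for 48 hours at 5 concentrations. Step 3: Interpolate endpoints linearly; if unreached, use highest concentration. TGI: concentration producing complete growth inhibition.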

For `Cc1ccc(S(=O)(=O)NC(=O)NC(CCC(N)=O)C(=O)O)cc1` (stereo not drawn), the TGI in the experiment with KM12 colon, with IGROV1 ovarian, in the experiment with SK-MEL-28 melanoma, in the experiment with OVCAR-5 ovarian, with PC-3 prostate and in the experiment with SF-539 CNS was over 100 µM in each case. In addition, the TGI in the experiment with A549 NSCLC, in the experiment on SK-OV-3 ovarian, in the experiment on UACC-257 melanoma, in the experiment with HCT-116 colon, with ACHN renal and in the experiment with NCI-H522 lung was over 100 µM each time. Also, the TGI with HS 578T breast, in the experiment with MALME-3M melanoma, in the experiment with MOLT-4 leukemia and with HOP-92 NSCLC was over 100 µM throughout.
With `Cc1cn(C2OC(CO)C(O)C2F)c(=O)[nH]c1=O` (stereo not drawn), the TGI with KM12 colon, in the experiment with IGROV1 ovarian, with SK-MEL-28 melanoma, in the experiment on OVCAR-5 ovarian, with PC-3 prostate and in the experiment with SF-539 CNS was over 100 µM throughout. In addition, the TGI in the experiment with A549 NSCLC, in the experiment with SK-OV-3 ovarian, with UACC-257 melanoma, in the experiment with HCT-116 colon, in the experiment with ACHN renal and with NCI-H522 lung was over 100 µM in each case. The TGI in the experiment with HS 578T breast, in the experiment with MALME-3M melanoma, with MOLT-4 leukemia and with HOP-92 NSCLC was over 100 µM each time.
With `O=C1/C(=C/c2ccccc2)CCCc2ccccc21`, the TGI with KM12 colon was 35.2 µM; in the experiment on IGROV1 ovarian it was 38.8 µM; in the experiment with SK-MEL-28 melanoma it was 32.6 µM; with OVCAR-5 ovarian it was 42.2 µM; in the experiment with PC-3 prostate it was 35.1 µM; in the experiment on SF-539 CNS, 32.1 µM. The TGI is 67.1 µM with A549 NSCLC; over 100 µM in the experiment on SK-OV-3 ovarian; 33.3 µM with UACC-257 melanoma; 30.7 µM in the experiment with HCT-116 colon; 47 µM with ACHN renal; 51.6 µM in the experiment on NCI-H522 lung. Besides, the TGI in the experiment with HS 578T breast came out at 40.4 µM; in the experiment with MALME-3M melanoma it was 42 µM; in the experiment on MOLT-4 leukemia, 48.1 µM; in the experiment with HOP-92 NSCLC, 32.9 µM.
`C[n+]1cn(-c2nc3ccccc3nc2[N-]S(=O)(=O)c2ccccc2)c2ccccc21`: the TGI in the experiment with KM12 colon, in the experiment on IGROV1 ovarian, in the experiment on SK-MEL-28 melanoma, in the experiment with OVCAR-5 ovarian, in the experiment with PC-3 prostate and in the experiment with SF-539 CNS was over 100 µM throughout. In addition, the TGI was over 100 µM with A549 NSCLC; over 100 µM in the experiment on SK-OV-3 ovarian; over 100 µM in the experiment on UACC-257 melanoma; over 100 µM with HCT-116 colon; over 100 µM with ACHN renal; 5.27 µM in the experiment with NCI-H522 lung. Besides, the TGI with HS 578T breast, in the experiment with MALME-3M melanoma, in the experiment on MOLT-4 leukemia and with HOP-92 NSCLC was over 100 µM each time.
On to `CC(C)=C[C@@H]1O[C@H](O)[C@@H]([C@H]2CC[C@@]3(C)[C@@H]4CC[C@H]5C(C)(C)C(=O)CC[C@@]56C[C@@]46CC[C@]23C)[C@@H]1O`, for which the TGI in the experiment with KM12 colon was determined as 34.9 µM; with IGROV1 ovarian, 35.4 µM; in the experiment with SK-MEL-28 melanoma, 42.5 µM; with OVCAR-5 ovarian, 57.8 µM; in the experiment on PC-3 prostate, 29.3 µM; in the experiment on SF-539 CNS, 28 µM. Besides, the TGI was determined as 28.7 µM in the experiment on A549 NSCLC; 34.6 µM in the experiment with SK-OV-3 ovarian; 31.6 µM in the experiment on UACC-257 melanoma; 28.5 µM in the experiment on HCT-116 colon; 32 µM in the experiment on ACHN renal; 30.3 µM in the experiment on NCI-H522 lung. Further, the TGI was 48.4 µM in the experiment with HS 578T breast, 37.7 µM in the experiment with MALME-3M melanoma, 32.4 µM in the experiment on MOLT-4 leukemia and 32 µM with HOP-92 NSCLC.
With `CC(CC[C@@]1(O)OC2C[C@H]3[C@@H]4CC[C@H]5CC(OC6OC(CO)C(OC7OC(CO)C(O)C(OC8OCC(O)C(O)C8O)C7OC7OC(CO)C(O)C(O)C7O)C(O)C6O)[C@H](O)CC5(C)[C@H]4CCC3(C)C2[C@@H]1C)COC1OC(CO)C(O)C(O)C1O` (stereo partly drawn), the TGI in the experiment on KM12 colon was over 50 µM; with IGROV1 ovarian, over 50 µM; in the experiment with SK-MEL-28 melanoma, over 50 µM; in the experiment with OVCAR-5 ovarian, 27.8 µM; with PC-3 prostate, over 50 µM; in the experiment on SF-539 CNS, 10.7 µM. Further, the TGI with A549 NSCLC was 11.1 µM; with SK-OV-3 ovarian it was 43.3 µM; with UACC-257 melanoma, 48.2 µM; in the experiment on HCT-116 colon, 47.3 µM; with ACHN renal, over 50 µM; with NCI-H522 lung, 22.3 µM. In addition, the TGI with HS 578T breast, with MALME-3M melanoma, in the experiment with MOLT-4 leukemia and in the experiment with HOP-92 NSCLC was over 50 µM in each case.
With `C[n+]1ccccc1/C1=c2\cc/c([nH]2)=C(\c2cccc[n+]2C)C2=N/C(=C(/c3cccc[n+]3C)C3C=CC(N3)/C(c3cccc[n+]3C)=C3/C=CC1=N3)C=C2`, the TGI in the experiment with KM12 colon, in the experiment with IGROV1 ovarian, in the experiment on SK-MEL-28 melanoma, in the experiment with OVCAR-5 ovarian, with PC-3 prostate and in the experiment with SF-539 CNS was over 100 µM throughout. In addition, the TGI in the experiment with A549 NSCLC, in the experiment with SK-OV-3 ovarian, in the experiment with UACC-257 melanoma, with HCT-116 colon, with ACHN renal and in the experiment with NCI-H522 lung was over 100 µM throughout. For the same compound, the TGI with HS 578T breast, in the experiment with MALME-3M melanoma, with MOLT-4 leukemia and with HOP-92 NSCLC was over 100 µM each time.
With `O=C1NC(=Nc2ccccc2Cl)N/C1=C\c1ccc(Cl)cc1Cl`, the TGI in the experiment on KM12 colon, with IGROV1 ovarian, in the experiment on SK-MEL-28 melanoma, in the experiment with OVCAR-5 ovarian, with PC-3 prostate and in the experiment on SF-539 CNS was over 100 µM each time. The TGI in the experiment with A549 NSCLC, in the experiment on SK-OV-3 ovarian, with UACC-257 melanoma, with HCT-116 colon, with ACHN renal and in the experiment on NCI-H522 lung was over 100 µM each time. Further, the TGI with HS 578T breast, in the experiment with MALME-3M melanoma, with MOLT-4 leukemia and in the experiment with HOP-92 NSCLC was over 100 µM each time.

Values taken from PubChem BioAssay (NCI).
